Like-named read-outs stand apart in the source and are kept apart here.
Assays:
[1] = values taken from literature references (footnote); cited from earlier work
[2] = pKa values of end-capping agents; assay type: physicochemical; conditions: approximated based on the values of similar structures

pKa [2]	Structure (SMILES)	pKa [1]
–	COc1ccc(O)cc1 [p-methoxyphenol]	10.4
10.5	CC(C)(c1ccccc1)c1ccc(O)cc1 [p-cumylphenol]	–
